Experimental data from patent US11446265B2, “Reagents, compositions and methods for improving viability and function of cells, tissues and organs” (TARGA BIOMEDICAL, priority 2016, dated 2022).

What was measured:
[1] = Rat myocardial ischemia/reperfusion in vivo, echocardiography at 24 h; details: 1 mg/Kg intraventricular, vs Vehicle
Procedure: Rats were randomly assigned to the following groups: Sham (n=6), Vehicle (n=8), Celastrol 1 mg/Kg (n=6) or Celastrol analogs. Under 2% isoflurane anesthesia, baseline echocardiography using a Sonos 5500 Imaging System (Philips, Philips Healthcare, Andover, Mass., USA) with a 12 MHz transducer was performed as described^12. All measures were acquired by the same experienced observer, blinded to the treatment. For each measurement, three to five cardiac cycles were analysed and averaged.
After echocardiography, the animal was intubated and mechanically ventilated, then bupivacaine 2 mg/kg was injected, and a left thoracotomy was performed, exposing the heart. Using a 5-0 silk slipknot, an occlusion of the left anterior descending coronary artery was performed. Visual blanching and electrocardiographic changes confirmed myocardial ischemia. In Sham animals, suture was not ligated. After 30 minutes, the suture occlusion was released. Celastrol, Celastrol analogs or vehicle was injected intraventricularly for acute systemic delivery, then the chest was closed. Buprenorfine (0.05 mg/Kg sc) and carprofen (5 mg/Kg sc) were injected at the end of surgery. Animals were left to recuperate for 24 h, then a second echocardiography was performed. Animals were sacrificed, cardiac tissue was snap frozen, and blood was collected in heparinized tubes, then centrifuged at 4° C. Plasma was collected, snap frozen and kept at −80° C. until analysis.

[2] = system: human mesenchymal stem cells (hMSC); experiment: mRNA expression in hMSC by real-time PCR; type: cell-based; details: FIGS. 25A, 25B, 26A to 26D
Description: FIG. 25A is a table representing mRNA expression of selected genes measured by real-time PCR in human mesenchymal stem cells (hMSC) conditioned with Celastrol alone or in combination with selected adjunct agents. Results are expressed as fold change versus Vehicle-treated cells.
FIG. 25B is a table representing mRNA expression of selected genes measured by real-time PCR in human mesenchymal stem cells (hMSC) conditioned with selected Celastrol analogs alone or in combination with selected adjunct agents. Results are expressed as fold change versus Vehicle-treated cells.
Results are expressed as fold change versus Vehicle-treated cells. (Arbitrary angiogenic index: (VEGFa+FGF2+SDF1)*2) (A=Additive effect; S=Synergistic effect).
(§1) To test the second main condition, MSCs were treated with the candidate pharmaco-optimizers for 1 hour, followed by 3 hours washout period. Cell mRNA was extracted and expression of genes of interest was quantified by real time PCR. In additional MSC cultures, cells were treated for one hour, washed and cultured in low serum media for 24 hours. The media containing paracrine factors secreted by MSCs was then placed in contact with H9c2 cardiomyoblast cell line. H9c2 cells were then submitted to the hypoxia/serum starvation (<1% O2 in hypoxia chamber in low serum media for 48 hours) or oxidative stress (incubation in media for 1 hour spiked with 0-1 mM H2O2). Viability status of H9c2 cells was evaluated using the LIVE/DEAD assay as detailed above.

[3] = system: isolated perfused heart; set-up: species or system rat
[4] = system: antioxidant responsive elements (ARE); experiment: Antioxidant response luciferase reporter assay in H9c2; type: cell-based, rat; details: H9c2, 10E-5 to 10E-10M, 4 hours, 3 hours washout
Procedure: (§2) H9c2 rat cardiomyoblasts were seeded at a density of 5,000 cells per well in 96 well plates in DMEM 10% FBS complete medium and transfected using lipofectamine with the Cignal Reporter Assay Heat shock response and Antioxidant response kits (SABiosciences, Qiagen) according to the manufacturers' protocol.

[5] = system: heat shock response (HSR); experiment: Heat shock response luciferase reporter assay in H9c2; type: cell-based, rat; details: H9c2, 10E-5 to 10E-10M, 4 hours, 3 hours washout
Procedure: as §2

[6] = system: H9c2 cardiomyoblasts; experiment: H9c2 viability under hypoxia/reoxygenation stress; type: cell-based, rat; details: 1 uM
Procedure: Next, the hypoxia/reoxygenation challenge is performed. Briefly, viability analysis was performed in rat H9c2 cardiomyoblasts as previously reported. For hypoxia/reoxygenation stress, cells were cultured in DMEM no glucose (Life Technologies), serum starved and placed in hypoxic conditions (<1% O2) for 18 h. At reoxygenation (normoxic conditions), cells were treated with Celastrol (10^−10 to 10^−6 mol/L, Cayman Chemical, Ann Arbor, Mich.), Celastrol analogs or vehicle (Dimethyl sulfoxide (DMSO), Sigma-Aldrich Canada, Oakville, ON; final concentration<1% v/v) in DMEM high glucose 1% FBS for 1 h, then reoxygenation was continued in DMEM high glucose for an additional 5 h.

[7] = system: H9c2 cardiomyoblasts; experiment: H9c2 viability under hypoxia/serum starvation (LIVE/DEAD); type: cell-based, rat; details: 1 uM
Procedure: For survival to hypoxic challenge and oxidative challenge, H9c2 cardiomyoblasts are submitted to the hypoxia/serum starvation (<1% O2 in hypoxia chamber in low serum media for 48 hours) or oxidative stress (incubation in media for 1 hour spiked with 0-1 mM H2O2). Viability status of H9c2 cells was evaluated using the LIVE/DEAD assay.

[8] = system: human MSCs; experiment: Screen of compounds for viability of human MSCs under hypoxic stress; type: cell-based; details: FIG. 1
Procedure: In an attempt to identify conditioning compounds that are able to ensure in vivo cellular viability, based on preliminary evidence using Celastrol, over a dozen compounds with structural similarities identified through literature and the Sigma-Aldrich® Structure Search online tool, were screened. The compounds' capacity to improve viability of human MSCs challenged to hypoxic stress was measured. The molecules that were screened, most of which are natural compounds, can be classified as triterpenoids, limonoids, withanolides, sterols, isoprenoides/ diterpenes and flavonoids. Classical HSP90 inhibitors were also added to the screen, such as Radicicol that directly target the ATP binding pocket at the NT region of HSP90^9 (NT inhibitor). […] 28; 42(2):260-6.^10Patwardhan C. A. et al., J Biol Chem. 2013 Mar. 8; 288(10):7313-25.^11Sreeramulu S. et al., Angew Chem Int Ed Engl. 2009; 48(32):5853-5.^12Gu M., et al. Invest New Drugs. 2014 Feb.;32(1):68-74.

[9] = system: H9c2 cells; experiment: H9c2 viability in oxidative stress after pre-conditioning with media from treated rMSC (paracrine); type: cell-based, rat; details: 24-hour preconditioning with media from treated rMSC
Procedure: as §1

[10] = system: H9c2 cardiomyoblast cell line; experiment: H9c2 viability in hypoxia after pre-conditioning with media from treated rMSC (paracrine); type: cell-based, rat; details: 48-hour pre-conditioning with media from treated rMSC; Gedunin high dose
Procedure: as §1

[11] = system: rat mesenchymal stem cells (rMSC); experiment: rMSC viability after oxidative stress (H2O2, LIVE/DEAD); type: cell-based; details: 1-hour treatment, compound alone
Procedure: (§3) To test the first main condition, MSCs (either sourced from rat or humans) were treated with the candidate pharmaco-optimizers, washed and submitted to hypoxia/serum starvation (<1% O2 in hypoxia chamber in low serum media for 48-72 hours) or oxidative stress (incubation in media for 1 hour spiked with 0-2 mM H2O2), which mimic the major lethal stressors present in the ischemic transplant microenvironment. Viability status of cells are assessed using the LIVE/DEAD viability/cytotoxicity kit (Life Technologies™) and results are quantified by Operetta high content screening (HCS) apparatus equipped with Harmony automated analysis software (Perkin Elmer™).

[12] = system: rat mesenchymal stem cells (rMSC); experiment: mRNA expression in rMSC by real time PCR; type: cell-based; details: rMSC, 1-hour treatment and 3-hour washout, co-treatment with EGCG or tBHQ
Procedure: as §1
Combination Treatments Tested—First Experiment: Celastrol (1 μM) or Gedunin (1 μM)+EGCG (1 μM, 10 μM) or TBHQ (1 μM, 5 μM)

[13] = system: rat mesenchymal stem cells (rMSC); experiment: rMSC viability after hypoxia/serum starvation (LIVE/DEAD); type: cell-based; details: 1-hour treatment, compound alone
Procedure: as §3

[14] = 10^−8 mol/L dose, vs Vehicle (DMSO)

Structure (SMILES) | cardiac output (CO) following I/R injury [1] | ejection fraction (EF) following I/R injury [1] | fractional shortening (FS) following I/R injury [1] | stroke volume (SV) following I/R injury [1] | ranking as HSP90 inhibitor from expression of HSPs, growth factors, antioxidant proteins/enzymes, cytokines, matrix remodeling proteins [2] | infarct area measured by TTC stain [3] | Coronary reserve flow (CRF) [3, 14] | I/R-induced systolic dysfunction (+/−dP/dt, generated pressure, EDP, contractility index) [3, 14] | high sensitivity troponin T (TNT-hs) release [3, 14] | stimulation of reporter gene controlled by antioxidant responsive elements (ARE) [4] | stimulation of reporter gene controlled by heat shock responsive elements (HSR) [5] | protection of H9c2 cardiomyoblasts from hypoxia/reoxygenation stress [6] | protection of H9c2 cardiomyoblasts from hypoxia [7] | capacity to improve viability of human MSCs challenged to hypoxic stress [8] | protection of H9c2 cells from oxidative stress induced death (paracrine) [9] | protection of H9c2 from 48-hour hypoxia-induced cell death (paracrine) [10] | protection of rMSCs from oxidative stress induced death [11] | IL-1β mRNA expression induced by EGCG and tBHQ [12] | protection of rMSCs from 48-hour hypoxia induced cell death [13]
CC1=C(O)C(=O)C=C2C1=CC=C1[C@@]2(C)CC[C@@]2(C)[C@@H]3C[C@](C)(C(N)=O)CC[C@]3(C)CC[C@]12C [Analog 1] | preserving | preserving | preserving | preserving | best HSP90 inhibitors | significantly reduced | preserved | protected the heart from I/R-induced systolic dysfunction | significantly reduced | among the most potent and efficient compounds tested | among the most potent and efficient compounds tested | effective | effective |  |  |  |  |  | 
CC(=O)O[C@@H]1C[C@H]2C(C)(C)C(=O)C=C[C@]2(C)[C@H]2CC[C@@]3(C)[C@H](c4ccoc4)OC(=O)[C@H]4O[C@]43[C@@]21C [Gedunin] |  |  |  |  |  |  |  |  |  |  |  |  |  | top scoring | protects | protects | protect treated cells from oxidative stress-induced death | downregulate | protect
C[C@@H]1C[C@H]2O[C@@H]2/C=C\C=C\C(=O)Cc2c(Cl)c(O)cc(O)c2C(=O)O1 [Radicicol] |  |  |  |  |  |  |  |  |  |  |  |  |  |  | no protection | does not produce a mediator for paracrine efficacy | not |  | protect
